“Also recorded” adds a separate entry of the source. Marks after values point to notes of the source that are not given here.
What was measured:
[1] = Maximum tolerated dose (MTD); design: species or system Sprague-Dawley rats; settings: rat, in vivo
Procedure: EXAMPLE. Maximum tolerated dose (MTD). […] Test compounds are administered by i.v., BIW, 2 wks in female Sprague-Dawley rats. Comparator compound EC0531 has a MTD of 0.33 μmol/kg, while EC1456 has a MTD of at least 0.51 μmol/kg, a […], as shown in FIG. 20. Histopathologic changes were not observed with doses of EC1456 at or below the MTD.

[2] = tested on: IGROV1 (FR+); assay: In vitro activity, 3H-thymidine incorporation, IGROV1; assay type: cell-based, Human
Procedure: (§1) METHOD. In vitro activity against various cancer cell lines. IC50 values are generated for various cell lines. Cells are heavily seeded in 24-well Falcon plates and allowed to form nearly confluent monolayers overnight. Thirty minutes prior to the addition of the test compound, spent medium is aspirated from all wells and replaced with fresh folate-deficient RPMI medium (FFRPMI). A subset of wells are designated to receive media containing 100 μM folic acid. The cells in the designated wells are used to determine the targeting specificity. Without being bound by theory it is believed herein that the cytotoxic activity produced by test compounds in the presence of excess folic acid, i.e. where there is competition for FR binding, corresponds to the portion of the total activity that is unrelated to FR-specific delivery. Following one rinse with 1 mL of fresh FFRPMI containing 10% heat-inactivated fetal calf serum, each well receives 1 mL of medium containing increasing concentrations of test compound (4 wells per sample) in the presence or absence of 100 μM free folic acid as indicated. […] A 450 μL aliquot of each solubilized sample is transferred to a scintillation vial containing 3 mL of Ecolume scintillation cocktail and then counted in a liquid scintillation counter. Final results are expressed as the percentage of ^3H-thymidine incorporation relative to untreated controls.

[3] = tested on: NC1/ADR-RES-Cl2 (FR+); assay: In vitro activity, 3H-thymidine incorporation, NC1/ADR-RES-Cl2; assay type: cell-based, Human
Procedure: as §1

[4] = tested on: MDA-MB-231 (FR+); assay: In vitro activity, 3H-thymidine incorporation, MDA-MB-231; assay type: cell-based, Human
Procedure: as §1

[5] = tested on: KB tumors; assay: Inhibition of tumor growth, s.c. KB tumors in nu/nu mice; assay type: in vivo; design: key to In vivo activity (e): CR = complete response, where tumor volume, as defined herein, during the observation period was zero for all test animals in the group; settings: for CR: 2 weeks
Procedure: METHOD. Inhibition of Tumor Growth in Mice. […] For tumor cell inoculation, 1×10^6 M109 cells (a syngeneic lung carcinoma) in Balb/c strain, or 1×10^6 KB cells in nu/nu strain, in 100 μL are injected in the subcutis of the dorsal medial area (right axilla).
METHOD. Toxicity as Measured by Weight Loss. The percentage weight change of the test animals is determined on selected days post-tumor inoculation (PTI), and during dosing. The results are graphed.

[6] = tested on: MDA-MB-231 tumors; assay: TNBC tumor assay, s.c. MDA-MB-231 xenografts; assay type: in vivo, nu/nu mice; settings: 2 μmol/kg i.v. TIW, 2 weeks
From the text: METHOD. TNBC Tumor Assay. Triple negative breast cancer (TNBC) is a subtype characterized by lack of gene expression for estrogen, progesterone and Her2/neu. TNBC is difficult to treat, and the resulting death rate in patients is reportedly disproportionately higher than for any other subtype of breast cancer. A TNBC xenograft model was generated in an analogous way to the KB and M109 models described herein by implanting MDA-MB-231 breast cancer cells in nu/nu mice. Dosing is initiated when the s.c. tumors have an average volume between 110-150 (generally 130) mm^3 (t0), typically 17 days post tumor inoculation (PTI).
EXAMPLE. […] Without being bound by theory, it is believed herein that the test animals were cured of the triple negative breast cancer.

[7] = tested on: KB cells (FR+); assay type: cell-based, Human
Procedure: METHOD. Inhibition of Cellular DNA Synthesis. The compounds described herein are evaluated using an in vitro cytotoxicity assay that predicts the ability of the drug to inhibit the growth of folate receptor-positive cells, such as KB cells, RAW264.7 macrophages, and the like. It is to be understood that the choice of cell type can made on the basis of the susceptibility of those selected cells to the drug that forms the conjugate. The test compounds are comprised of folate linked to a respective chemotherapeutic drug, as prepared according to the processes described herein. The test cells are exposed to varying concentrations of folate-drug conjugate, and also in the absence or presence of at least a 100-fold excess of folic acid to assess activity as being specific to folate receptor mediation.
EXAMPLE. Conjugates of cytotoxic drugs described herein are active against KB cells. The activity is mediated by the folate receptor as indicated by competition experiments using co-administered folic acid. KB cells are exposed for up to 7 h at 37° C. to the indicated concentrations of folate-drug conjugate in the absence or presence of at least a 100-fold excess of folic acid. The cells are then rinsed once with fresh culture medium and incubated in fresh culture medium for 72 hours at 37° C. Cell viability was assessed using a ^3H-thymidine incorporation assay.
METHOD. In vitro activity against various cancer cell lines. IC50 values are generated for various cell lines. Cells are heavily seeded in 24-well Falcon plates and allowed to form nearly confluent monolayers overnight. Thirty minutes prior to the addition of the test compound, spent medium is aspirated from all wells and replaced with fresh folate-deficient RPMI medium (FFRPMI). A subset of wells are designated to receive media containing 100 μM folic acid. The cells in the designated wells are used to determine the targeting specificity. Without being bound by theory it is believed herein that the cytotoxic activity produced by test compounds in the presence of excess folic acid, i.e. where there is competition for FR binding, corresponds to the portion of the total activity that is unrelated to FR-specific delivery. Following one rinse with 1 mL of fresh FFRPMI containing 10% heat-inactivated fetal calf serum, each well receives 1 mL of medium containing increasing concentrations of test compound (4 wells per sample) in the presence or absence of 100 μM free folic acid as indicated. Treated cells are pulsed for 2 h at 37° C., rinsed 4 times with 0.5 mL of media, and then chased in 1 mL of fresh medium up to 70 h. Spent medium is aspirated from all wells and replaced with fresh medium containing 5 μCi/mL ^3H-thymidine. Following a further 2 h 37° C. incubation, cells are washed 3 times with 0.5 mL of PBS and then treated with 0.5 mL of ice-cold 5% trichloroacetic acid per well. After 15 min, the trichloroacetic acid is aspirated and the cell material solubilized by the addition of 0.5 mL of 0.25 N sodium hydroxide for 15 min. A 450 μL aliquot of each solubilized sample is transferred to a scintillation vial containing 3 mL of Ecolume scintillation cocktail and then counted in a liquid scintillation counter. Final results are expressed as the percentage of ^3H-thymidine incorporation relative to untreated controls.

[8] = tested on: KB-CR2000 (cisplatin resistant) tumors; assay: Cisplatin-resistant KB-CR2000 tumor model; assay type: in vivo, mice
[9] = tested on: H23 (FR-); assay: In vitro activity, 3H-thymidine incorporation, H23; assay type: cell-based, Human; settings: evaluated from 0.1-100 nM
Procedure: as §1

[10] = tested on: HepG2 (FR-); assay: In vitro activity, 3H-thymidine incorporation, HepG2; assay type: cell-based, Human; settings: evaluated from 0.1-100 nM
Procedure: as §1

[11] = target: T1, folate receptors (FRs) on KB cells (Homo sapiens, UniProt P15328); assay: Relative affinity assay (3H-folic acid competition) on KB cells; assay type: binding; settings: folic acid = 1; in 10% serum/FDRPMI
T1 construct: FR-positive KB cells are heavily seeded into 24-well cell culture plates; endogenous in cells; host or cells: KB cells
T1 sequence (P15328 25-234): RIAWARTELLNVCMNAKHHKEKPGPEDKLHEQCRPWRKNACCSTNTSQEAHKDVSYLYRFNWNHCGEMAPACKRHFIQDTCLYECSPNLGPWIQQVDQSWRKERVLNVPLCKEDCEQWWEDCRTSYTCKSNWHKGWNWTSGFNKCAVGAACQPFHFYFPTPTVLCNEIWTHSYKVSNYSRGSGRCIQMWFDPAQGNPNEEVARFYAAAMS
Procedure: METHOD. Relative Affinity Assay. The affinity for folate receptors (FRs) relative to folate is determined according to a previously described method (Westerhof, G. R., J. H. Schornagel, et al. (1995) Mol. Pharm. 48: 459-471) with slight modification. Briefly, FR-positive KB cells are heavily seeded into 24-well cell culture plates and allowed to adhere to the plastic for 18 h. Spent incubation media is replaced in designated wells with folate-free RPMI (FFRPMI) supplemented with 100 nM ^3H-folic acid in the absence and presence of increasing concentrations of test article or folic acid. Cells are incubated for 60 min at 37° C. and then rinsed 3 times with PBS, pH 7.4. Five hundred microliters of 1% SDS in PBS, pH 7.4, is added per well. Cell lysates are then collected and added to individual vials containing 5 mL of scintillation cocktail, and then counted for radioactivity. Negative control tubes contain only the ^3H-folic acid in FFRPMI (no competitor). Positive control tubes contain a final concentration of 1 mM folic acid, and CPMs measured in these samples (representing non-specific binding of label) are subtracted from all samples.

[12] = tested on: A549 (FR-); assay: In vitro activity, 3H-thymidine incorporation, A549; assay type: cell-based, Human; settings: evaluated from 0.1-100 nM
Procedure: as §1

[13] = tested on: AN3CA (FR-); assay: In vitro activity, 3H-thymidine incorporation, AN3CA; assay type: cell-based, Human; settings: evaluated from 0.1-100 nM
Procedure: as §1

## CCCC(=O)OCN(C(=O)[C@@H](NC(=O)[C@H]1CCCCN1C)C(C)CC)C(C[C@@H](OC(C)=O)c1nc(C(=O)N[C@@H](Cc2ccc(O)cc2)C[C@H](C)C(=O)NNC(=O)OCCSSC[C@@H](NC(=O)[C@H](CCC(=O)NC[C@H](O)[C@@H](O)[C@H](O)[C@H](O)CO)NC(=O)[C@@H](CCC(=O)O)NC(=O)[C@H](CCC(=O)NC[C@H](O)[C@@H](O)[C@H](O)[C@H](O)CO)NC(=O)[C@@H](CCC(=O)O)NC(=O)[C@H](CCC(=O)NC[C@H](O)[C@@H](O)[C@H](O)[C@H](O)CO)NC(=O)CC[C@@H](NC(=O)c2ccc(NCc3cnc4nc(N)[nH]c(=O)c4n3)cc2)C(=O)O)C(=O)O)cs1)C(C)C (stereo partly drawn) [EC1456]
[1]
  improvement in MTD over EC0531: 65%
[1]; iv, BIW, 2 wks, female Sprague-Dawley rats
  MTD at 2 weeks: ≥ 0.51 µmol/kg
[2]
  Competable up to 100 nM: Yes
[3]
  Competable up to 100 nM: Yes
[4]
  Competable up to 100 nM: Yes
[5]; 0.5 μmol/kg, TIW, 3 weeks, untreated control 2.4%
  Toxicity: Avg. Weight Loss: <5%*
[5]; 1 μmol/kg TIW, 2 wk
  whole animal toxicity (body weight): did not result in any observable whole animal toxicity; also recorded: does not show any evidence of whole animal toxicity
[5]; 1 μmol/kg i.v. TIW, 2 wk
  complete response (test animals): 4/4
[5]; 1.0 μmol/kg, TIW
  CR: 60%
[5]; 2.0 μmol/kg, TIW
  CR: 100%
[5]; EC0923 50 or 100 μmol/kg co-dosed
  activity competable with excess EC0923: competable
[5]; subcutaneous KB tumor in nu/nu mice
  In vivo activity (e): CR
[6]
  weight loss / gross whole animal toxicity: did not cause gross whole animal toxicity; also recorded: not accompanied by significant weight loss
[6]; observation nearly 135 days
  complete responses (test animals): 4 of 5
[7]
  improvement in specificity compared to comparator EC0531: 4 fold
[7]; IC50 competed group vs non-competed group
  In vitro specificity (fold) (d): 944 fold
[7]; IC50 competed vs non-competed group
  specificity for the folate receptor by folic acid competition: ca. 1000 fold
[7]; KB
  Competable up to 100 nM: Yes
[8]; 2 μmol/kg i.v. TIW, 2 weeks
  CRs (test animals): 5/5
  regrowth of the tumor (test animals): 1/5
  weight loss / host animal toxicity: did not exhibit significant host animal toxicity; also recorded: did not cause any weight loss
[8]; nearly 70 day observation period
  test animals cured (no regrowth): 4/5
[9]
  Activity (IC50): Inactive
[10]
  Activity (IC50): Inactive
[11]
  Relative Affinity (a) compared to folic acid: 0.27
[12]
  Activity (IC50): Inactive (a)
[13]
  Activity (IC50): Inactive

— patent US20200121801A1, “DRUG DELIVERY CONJUGATES CONTAINING UNNATURAL AMINO ACIDS AND METHODS FOR USING” (priority 2012, published 2020)
